The source of these data is paper PMC9034178, “Self-assemblies of pluronic micelles in partitioning of anticancer drugs and effectiveness of this system towards target protein” (RSC Advances, 2021).

The structures appear in SMILES notation.

The assay deals with T1, bovine serum albumin (BSA) (Bos taurus, UniProt P02769).
T1 construct: gene ALB
T1 sequence (P02769 25-607): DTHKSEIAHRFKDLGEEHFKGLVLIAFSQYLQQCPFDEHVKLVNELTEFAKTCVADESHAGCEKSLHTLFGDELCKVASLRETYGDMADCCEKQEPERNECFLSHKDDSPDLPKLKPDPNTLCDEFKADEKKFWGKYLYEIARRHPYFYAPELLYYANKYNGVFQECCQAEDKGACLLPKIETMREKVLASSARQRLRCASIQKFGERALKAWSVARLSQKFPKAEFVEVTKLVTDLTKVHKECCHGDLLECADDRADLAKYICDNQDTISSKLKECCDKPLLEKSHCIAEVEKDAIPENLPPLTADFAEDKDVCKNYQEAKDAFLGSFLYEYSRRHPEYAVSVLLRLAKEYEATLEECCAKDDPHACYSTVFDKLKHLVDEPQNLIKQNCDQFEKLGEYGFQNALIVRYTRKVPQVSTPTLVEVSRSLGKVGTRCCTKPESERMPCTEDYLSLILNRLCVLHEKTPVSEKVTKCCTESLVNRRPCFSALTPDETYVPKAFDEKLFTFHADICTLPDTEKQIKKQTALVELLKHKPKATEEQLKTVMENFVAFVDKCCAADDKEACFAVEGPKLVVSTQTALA
Nature of the assay: tryptophan fluorescence quenching (ex […] nm), double-log plot. It is filed as binding. The settings on record: no pluronic; pH 7.4, 298.15 K.
As to `NC(=O)NO` [hydroxyurea], the “K a (M^-1)” value is on record as “(2.3 ± 0.4) × 10^2 M^-1”.

On to `Nc1ccn([C@@H]2O[C@H](CO)[C@@H](O)C2(F)F)c(=O)n1` [gemcitabine], for which the “K a (M^-1)” value is recorded as “(2.4 ± 0.2) × 10^2 M^-1”.

Consider `Nc1ccn([C@@H]2O[C@H](CO)[C@@H](O)[C@@H]2O)c(=O)n1` [cytarabine], for which the “K a (M^-1)” value was “(1.1 ± 0.1) × 10^2 M^-1”.
